Experimental findings from ChEMBL document CHEMBL1122358, “Synthesis and central dopaminergic activities of (+/-)-hexahydro-7H-indolo[3,4-gh][1,4]benzoxazine derivatives [(+/-)-9-oxaergolines]” (J Med Chem, 1983) are described below.

For data set [1], the species on record is Rattus norvegicus. Description: Minimum effective dose required to decrease striatal DA turnover in rats. In kind it is functional. The settings on record: read-out: MED.
Data set [2] concerns Rattus norvegicus. Briefly: Inhibitory activity against plasma prolactin level in male Sprague-Dawley rats after peroral administration (5mg/Kg), activity expressed as mean duration for submaximal inhibition. In kind it is functional.
Data set [3] can be described thus: Lethal dose in male mice (administered ip), activity expressed as LD50 values. In kind it is toxicity, organism-based. As to conditions: mouse, in vivo.
The species entered for data set [4] is Rattus norvegicus. Briefly: Inhibitory activity against prolactin release in rat anterior pituitary cells. In kind it is functional, cell-based. The settings on record: Pituitary gland cell.
For data set [5], the system named is Canis familiaris. Description: Minimum effective dose (sc) to induce emesis in male or female Beagle dogs. In kind it is functional. The settings on record: Canis lupus familiaris, read-out: MED.
Data set [6] concerns the target Dopamine receptor. Description: In vitro binding affinity towards dopamine receptor was determined in rat striatal membrane using [3H]spiroperidol as the radioligand. In kind it is cell membranes, Striatum.
The species entered for data set [7] is Rattus norvegicus. Description: Minimum effective dose required to induce rotations in rats with unilateral lesion in the nigrostriatal pathway. The settings on record: read-out: MED. In kind it is functional.
Data set [8] has as its target Dopamine receptor (Bos taurus, UniProt Q95136+P20288). Description: In vitro binding affinity towards dopamine receptor was determined in bovine anterior pituitary membrane using [3H]dihydroergocriptine as the radioligand. In kind it is cell membranes.
The species named for data set [9] is Rattus norvegicus. Description: Minimum effective dose required to produce stereotypies in rats. In kind it is functional. The settings on record: read-out: MED.
Data set [10] concerns Rattus norvegicus. Briefly: Inhibitory activity against plasma prolactin level in male Sprague-Dawley rats after peroral administration (5mg/Kg), activity expressed as mean duration for submaximal inhibition; Duration 3-4h. In kind it is functional.
Data set [11] has as its system Rattus norvegicus. Description: Inhibitory activity against plasma prolactin level in male Sprague-Dawley rats after peroral administration (5mg/Kg), activity expressed as mean duration for submaximal inhibition; Duration 4-8h. In kind it is functional.
Data set [12] concerns Rattus norvegicus. Description: Inhibitory activity against plasma prolactin level in male Sprague-Dawley rats after peroral administration (5mg/Kg), activity expressed as mean duration for submaximal inhibition; Duration 3-6h. In kind it is functional.

The LD50 is the dose expected to kill half of the subjects tested. A higher LD50 goes with a less toxic substance. For orientation: IC50 means the concentration at which inhibition is half-maximal. A lower IC50 goes with higher potency. On to `CCCN1CCO[C@@H]2c3cccc4[nH]cc(c34)C[C@H]21`, for which the minimal effective dose in [1] turned out to be 0.05 mg/kg; in data set [5], 0.01 mg/kg; in data set [7], 0.01 mg/kg; in [9] it was 0.1 mg/kg. The molecule further yielded a Duration in data set [2] of over 22 h. For the same molecule, the LD50 in data set [3] was 150 mg/kg. The IC50 in data set [4] turned out to be 0.06 nM; in [6], 70 nM; in data set [8] it was 40 nM.
`CN1CCO[C@@H]2c3cccc4c3c(cn4C)C[C@H]21`: the minimal effective dose worked out at 10 mg/kg in data set [1], 1 mg/kg in [5], 2 mg/kg in data set [7] and 20 mg/kg in [9]. Further, in data set [3], the 50% lethal dose (LD50) is over 200 mg/kg. Also, the Duration in [10] came to 3 h. For the same molecule, the values for the IC50 in data set [4], in data set [6] and in [8] were over 10000 nM, 4500 nM and 4800 nM, respectively.
On to `c1cc2c3c(c[nH]c3c1)C[C@H]1NCCO[C@H]21`, for which the minimal effective dose is 1 mg/kg in data set [1], over 0.5 mg/kg in data set [5], 0.5 mg/kg in data set [7] and 5 mg/kg in [9]. This molecule returned a Duration in data set [2] of 3 h. Further, the LD50 in data set [3] is 150 mg/kg. The IC50 in [4] was 300 nM; in data set [6], 5000 nM; in data set [8], 7000 nM.
Regarding `CCCN1CCO[C@@H]2c3cccc4c3[C@@H](CN4)C[C@H]21`, the minimal effective dose in data set [1], in data set [5], in data set [7] and in data set [9] was 0.1 mg/kg each time. The same molecule gave a Duration in data set [2] of over 12 h. Further, the LD50 in data set [3] is 150 mg/kg. Moreover, the half-inhibitory concentration (IC50) in data set [4] came out at 0.1 nM; in data set [6], 600 nM; in data set [8] it was 300 nM.
For `CCCN1C[C@H](CSC)C[C@@H]2c3cccc4[nH]cc(c34)C[C@H]21.CS(=O)(=O)O` [PERGOLIDE MESYLATE], the minimal effective dose in [1] stood at 0.05 mg/kg; in data set [5] it was 0.05 mg/kg; in data set [7] it was 0.02 mg/kg; in [9], 0.1 mg/kg. For the same molecule, the Duration in data set [2] was over 22 h. In data set [3], this molecule had a median lethal dose (LD50) of 100 mg/kg. Besides, the IC50 in data set [4] is 0.07 nM.
As to `CCCN1CCO[C@@H]2c3cccc4[nH]c(Br)c(c34)C[C@H]21`, the minimal effective dose in data set [1] is 0.5 mg/kg; in [5], over 0.5 mg/kg; in data set [7] it was 0.2 mg/kg; in data set [9], 0.2 mg/kg. In data set [2], this molecule came in with a Duration of over 12 h. This molecule also registered an LD50 in data set [3] of over 200 mg/kg. Besides, the IC50 in [4] is 0.2 nM; in [6], 250 nM; in data set [8], 500 nM.
`CN1CCO[C@@H]2c3cccc4[nH]cc(c34)C[C@H]21`: the minimal effective dose in data set [1] worked out at 0.1 mg/kg; in data set [5], 0.1 mg/kg; in [7], 0.2 mg/kg; in data set [9], 0.5 mg/kg. This molecule also came in with a Duration in [11] of 4 h. In addition, the IC50 in data set [4] was 17 nM; in [6] it was 800 nM; in data set [8], 2500 nM.
For the molecule `CN1CCO[C@@H]2c3cccc4[nH]c(Br)c(c34)C[C@H]21`, the minimal effective dose in data set [1] came out at 1 mg/kg; in data set [5] it was 0.5 mg/kg; in data set [7], 1 mg/kg; in [9], 20 mg/kg. For the same molecule, in [3], the LD50 amounted to 35 mg/kg. The values for the 50% inhibitory concentration (IC50) in data set [4], in data set [6] and in data set [8] were 100 nM, 1000 nM and 3000 nM, respectively. Besides, the Duration in data set [12] is 3 h.
